Earlier results, collected in patent US20040048871A1, “Use of high dose intravenous methotrexate, with leucovorin rescue, to treat early multiple sclerosis and other diseases of the central nervous system” (priority 2002, published 2004).
Where two headings read alike, the source gives them in different places.

Tests used:
[1] = for crossing of the blood brain barrier (BBB): in vivo
[2] = in vivo
[3] = 2.5 g/m^2 sporadically via IV infusion, with leucovorin rescue
[4] = 8 g/m^2, four hour IV infusion, with leucovorin rescue
[5] = low-dose methotrexate 7.5 mg/week, orally

SMILES: Nc1nc2c(c(=O)[nH]1)N(C=O)C(CNc1ccc(C(=O)N[C@@H](CCC(=O)O)C(=O)O)cc1)CN2 (some centres unmarked) [leucovorin]
- crossing of the blood brain barrier (BBB) [1]: does not penetrate the BBB

SMILES: O=P1(N(CCCl)CCCl)NCCCO1 (centres unmarked) [cyclophosphamide]
- crossing of the blood brain barrier (BBB) [1]: do not cross the blood brain barrier
- efficacy against the progression of MS [2]: some efficacy

SMILES: CN(Cc1cnc2nc(N)nc(N)c2n1)c1ccc(C(=O)N[C@@H](CCC(=O)O)C(=O)O)cc1 [methotrexate]
- effect on the course of progressive MS [5]: impact the course of progressive MS
- toxicity [5]: minimal toxicity
- upper extremity strength in MS patients (oral methotrexate treatments): mild improvement
- toxicity [3]: no significant toxicity
- results in treating CNS lymphomas [4]: promising results
- toxicity [4]: low toxicity
- serum level sufficient to cross the BBB in cytotoxic amounts ([1]; administered orally): not sufficient to cross the BBB in cytotoxic amounts

SMILES: O=C1c2c(O)ccc(O)c2C(=O)c2c(NCCNCCO)ccc(NCCNCCO)c21 [mitoxantrone]
- crossing of the blood brain barrier (BBB) [1]: do not cross the blood brain barrier
